Source: PubChem BioAssay AID1963965 (Molecular Pharmacology Branch, DTP, NCI, 2024)

System: 996289-038-R-J1-PDC spheroid viability
Test: Anticancer human tumor 996289-038-R-J1-PDC patient-derived colon adenocarcinoma cell line growth inhibition [PI3K]
Conditions: spheroids with HUVEC and MSC; for IC50: curve of first compound; for viability, T/C: stronger effect = lower value; active = viability on the fitted dose curve at most 10% of control; inactive = the rest
Method in brief: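 Three cell types, namely tumor cells, endothelial cells and mesenchymal stem cells, formed each spheroid. Combinations with four PI3K inhibitors were screened at clinically achievable concentrations decreasing by half-log, and spheroid viability was recorded.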
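Note: spheroids exposed to compounds for seven days before viability read.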
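Throughout, for viability, T/C: luminescence used as a proxy for viable cell amount; percent viability relative to DMSO vehicle control as 100%.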

Cn1nccc1Nc1nccc(-c2ccn(C(CO)c3ccc(Cl)c(F)c3)c(=O)c2)n1 (configuration not stated) + COc1c(OCCCN2CCOCC2)ccc2c3n(c(=NC(=O)c4cnc(N)nc4)nc12)CCN3
> 10 µM: IC50 (second compound 0.00316 µM) | IC50 (second compound 0.01 µM)
2.56 µM: IC50 (second compound 0.1 µM)
inactive: viability, T/C (second compound 0.00316 µM, first compound 0.0316 µM) 94.8% | viability, T/C (second compound 0.00316 µM, first compound 0.1 µM) 82.6% | viability, T/C (second compound 0.00316 µM, first compound 0.316 µM) 104% | viability, T/C (second compound 0.00316 µM, first compound 1 µM) 83.6% | viability, T/C (second compound 0.00316 µM, first compound 3.16 µM) 86.4% | viability, T/C (second compound 0.00316 µM, first compound 10 µM) 55.6% | viability, T/C (second compound 0.01 µM, first compound 0.0316 µM) 95.6% | viability, T/C (second compound 0.01 µM, first compound 0.1 µM) 87.5% | viability, T/C (second compound 0.01 µM, first compound 0.316 µM) 91.2% | viability, T/C (second compound 0.01 µM, first compound 1 µM) 93.6% | viability, T/C (second compound 0.01 µM, first compound 3.16 µM) 73.3% | viability, T/C (second compound 0.01 µM, first compound 10 µM) 56.3% | viability, T/C (second compound 0.0316 µM, first compound 0.0316 µM) 100% | viability, T/C (second compound 0.0316 µM, first compound 0.1 µM) 80.1% | viability, T/C (second compound 0.0316 µM, first compound 0.316 µM) 80% | viability, T/C (second compound 0.0316 µM, first compound 1 µM) 76% | viability, T/C (second compound 0.0316 µM, first compound 3.16 µM) 58% | viability, T/C (second compound 0.0316 µM, first compound 10 µM) 41.2% | viability, T/C (second compound 0.1 µM, first compound 0.0316 µM) 69.5% | viability, T/C (second compound 0.1 µM, first compound 0.1 µM) 62.8% | viability, T/C (second compound 0.1 µM, first compound 0.316 µM) 64.3% | viability, T/C (second compound 0.1 µM, first compound 1 µM) 54% | viability, T/C (second compound 0.1 µM, first compound 3.16 µM) 51.9% | viability, T/C (second compound 0.1 µM, first compound 10 µM) 22.4% | viability, T/C (second compound 0.316 µM, first compound 0.0316 µM) 44.9% | viability, T/C (second compound 0.316 µM, first compound 0.1 µM) 34.7% | viability, T/C (second compound 0.316 µM, first compound 0.316 µM) 35% | viability, T/C (second compound 0.316 µM, first compound 1 µM) 36.4% | viability, T/C (second compound 0.316 µM, first compound 3.16 µM) 27.9% | viability, T/C (second compound 0.316 µM, first compound 10 µM) 18.5% | viability, T/C (second compound 1 µM, first compound 0.0316 µM) 18.8% | viability, T/C (second compound 1 µM, first compound 0.1 µM) 20.6% | viability, T/C (second compound 1 µM, first compound 0.316 µM) 24% | viability, T/C (second compound 1 µM, first compound 1 µM) 17.7% | viability, T/C (second compound 1 µM, first compound 3.16 µM) 15% | viability, T/C (second compound 1 µM, first compound 10 µM) 9.77%
< 0.0316 µM: IC50 (second compound 0.316 µM) | IC50 (second compound 1 µM)
5.91 µM: IC50 (second compound 0.0316 µM)
